Reference: patent US20220400680A1, “USE OF ACYLCYANAMIDES OR SALTS THEREOF FOR REGULATING PLANT GROWTH” (Alzchem Trostberg GmbH, priority 2019, published 2022)

Columns and labels:
[1] = test system: Table apple, type Boiken apple (C1); test: Greenhouse test, cut apple branches C1 dipped in test solution, bud development stage; format: in vivo, Malus domestica; parameters: key to Bud development stage, apple branches C1: Stage 0: Buds unchanged; Stage 1: Buds slightly swollen, first green tips visible; Stage 2: strongly swollen, green buds; Stage 3: Buds before breaking open, leaf or flower root already visible; Stage 4: Flower buds fully developed, but still closed, white petals already visible. In the case of the grapevine, stage 4 was the unfolding of the first leaves; Stage 5: Flowers fully open or, in the case of grapevine, unfolding of the flower roots (“Gescheine”) on the fully leafed sprouts
Protocol: Greenhouse tests were conducted using cut fruit tree branches placed in water jars and maintained under controlled conditions with temperature regulation at approximately 22° C. and natural lighting. C1: Table Apple, Type Boiken Apple Table apple: Malus domestica type Boiken first described in 1828 in Bremen after Deichvogt Boiken. Apple type for rough locations and for almost every soil suitable scattered fruit type, whereby heavy soils and not too warm locations are required. Tree growth initially strong, later medium. Older crowns become broadly spherical and are loosely branched. Flowering starting medium-late and long lasting, petals large with little pink. Yield starting late (October) and irregular; with long shelf life and pressure resistance. […] The test solutions were prepared directly, i.e. without intermediate preparation of a concentrate. For each of the test substances A-1 to A-13, an aqueous solution of 0.15 mol of the test substance and 0.15 g BreakThru® OE-446 was prepared and filled up to a total of 500 g with water. Of bis-cyanamides A-14 and A-15, 0.075 mol each was filled up to 500 g in an analogous manner. These test solutions (in combination with the above 4 species/types Cx) were given the test numbers Cx-A1 to Cx-A15. […] This was done with the following evaluation scale: • Stage 0: […] Flower buds fully developed, but still closed, white petals already visible. […] Flowers fully open or, in the case of grapevine, unfolding of the flower roots (“[…]”) on the fully leafed sprouts.

[2] = test system: Table apple, type Zabergäu-Renette (C2); test: Greenhouse test, cut apple branches C2 dipped in test solution, bud development stage; format: in vivo, Malus domestica; parameters: key to Bud development stage, apple branches C2: Stage 0: Buds unchanged; Stage 1: Buds slightly swollen, first green tips visible; Stage 2: strongly swollen, green buds; Stage 3: Buds before breaking open, leaf or flower root already visible; Stage 4: Flower buds fully developed, but still closed, white petals already visible. In the case of the grapevine, stage 4 was the unfolding of the first leaves; Stage 5: Flowers fully open or, in the case of grapevine, unfolding of the flower roots (“Gescheine”) on the fully leafed sprouts
Protocol: Greenhouse tests were conducted using cut fruit tree branches placed in water jars and maintained under controlled conditions with temperature regulation at approximately 22° C. and natural lighting. C2: Table Apple, Type […] Table apple: Malus domestica type […] first developed in 1885 as a chance seedling in Hausen a.d. Zaber/Baden-Württemberg and initially grown as 'Hausener Graue […]'. No defined storage type; requires heavy soils (loam). Tree growth initially strong with oblique upright leading branches, later medium with flat branches. Crown broad and flat-spherical with flat fruiting wood. Leaves large, broad oval and with clearly separated tip. Triploid type with late and long-lasting flowering. Yield starting early, medium high and somewhat alternate. […] The test solutions were prepared directly, i.e. without intermediate preparation of a concentrate. For each of the test substances A-1 to A-13, an aqueous solution of 0.15 mol of the test substance and 0.15 g BreakThru® OE-446 was prepared and filled up to a total of 500 g with water. Of bis-cyanamides A-14 and A-15, 0.075 mol each was filled up to 500 g in an analogous manner. These test solutions (in combination with the above 4 species/types Cx) were given the test numbers Cx-A1 to Cx-A15. […] This was done with the following evaluation scale: • Stage 0: […] Flower buds fully developed, but still closed, white petals already visible. […] Flowers fully open or, in the case of grapevine, unfolding of the flower roots (“[…]”) on the fully leafed sprouts.

[3] = test system: Table cherry, type Burlat (C3); test: Greenhouse test, cut cherry branches C3 dipped in test solution, bud development stage; format: in vivo, Prunus avium; parameters: key to Bud development stage, cherry branches C3: Stage 0: Buds unchanged; Stage 1: Buds slightly swollen, first green tips visible; Stage 2: strongly swollen, green buds; Stage 3: Buds before breaking open, leaf or flower root already visible; Stage 4: Flower buds fully developed, but still closed, white petals already visible. In the case of the grapevine, stage 4 was the unfolding of the first leaves; Stage 5: Flowers fully open or, in the case of grapevine, unfolding of the flower roots (“Gescheine”) on the fully leafed sprouts
Protocol: Greenhouse tests were conducted using cut fruit tree branches placed in water jars and maintained under controlled conditions with temperature regulation at approximately 22° C. and natural lighting. C3: Table Cherry, Type Burlat Table cherry: Prunus avium type Bigarreau Burlat or […] is a strong-growing somewhat sparse growing sweet cherry tree with horizontal side sprouts. The type has been known since 1930 and is one of the most important types in commercial cultivation. […] Medium but regular yields identify the type as a secondary type for early and dry areas. […] The test solutions were prepared directly, i.e. without intermediate preparation of a concentrate. For each of the test substances A-1 to A-13, an aqueous solution of 0.15 mol of the test substance and 0.15 g BreakThru® OE-446 was prepared and filled up to a total of 500 g with water. Of bis-cyanamides A-14 and A-15, 0.075 mol each was filled up to 500 g in an analogous manner. These test solutions (in combination with the above 4 species/types Cx) were given the test numbers Cx-A1 to Cx-A15. […] This was done with the following evaluation scale: • Stage 0: […] Flower buds fully developed, but still closed, white petals already visible. […] Flowers fully open or, in the case of grapevine, unfolding of the flower roots (“[…]”) on the fully leafed sprouts.

[4] = test system: Grape, type Pinot Noir (C4); test: Greenhouse test, cut wine sprouts C4 dipped in test solution, bud development stage; format: in vivo, Vitis vinifera subsp. vinifera; parameters: key to Bud development stage, wine sprouts C4: Stage 0: Buds unchanged; Stage 1: Buds slightly swollen, first green tips visible; Stage 2: strongly swollen, green buds; Stage 3: Buds before breaking open, leaf or flower root already visible; Stage 4: Flower buds fully developed, but still closed, white petals already visible. In the case of the grapevine, stage 4 was the unfolding of the first leaves; Stage 5: Flowers fully open or, in the case of grapevine, unfolding of the flower roots (“Gescheine”) on the fully leafed sprouts
Protocol: Greenhouse tests were conducted using cut fruit tree branches placed in water jars and maintained under controlled conditions with temperature regulation at approximately 22° C. and natural lighting. C4: Grape, Type Pinot Noir Grape: Vitis vinifera subsp. vinifera type Pinot Noir is an important and high quality red wine type that has existed for possibly 2000 years. It is cultivated all over the world because the type produces high quality red wines and has sufficient winter frost resistance. The type requires early and good areas with deep, warm, medium-heavy and fertile soils with good water supply. Pinot Noir produces regular, medium-high to high yields. However, there are a large number of clones that differ in yield, berry size and looseness. […] The test solutions were prepared directly, i.e. without intermediate preparation of a concentrate. For each of the test substances A-1 to A-13, an aqueous solution of 0.15 mol of the test substance and 0.15 g BreakThru® OE-446 was prepared and filled up to a total of 500 g with water. Of bis-cyanamides A-14 and A-15, 0.075 mol each was filled up to 500 g in an analogous manner. These test solutions (in combination with the above 4 species/types Cx) were given the test numbers Cx-A1 to Cx-A15. […] This was done with the following evaluation scale: • Stage 0: […] Flower buds fully developed, but still closed, white petals already visible. […] Flowers fully open or, in the case of grapevine, unfolding of the flower roots (“[…]”) on the fully leafed sprouts.

[5] = T1 (14 d), 0.15 mol (A-14, A-15: 0.075 mol) per 500 g solution
[6] = stage 4 reached or exceeded after 27 days vs negative control
[7] = stage 4 reached or exceeded after 36 days vs negative control

Structure (SMILES) | Bud development stage, apple branches C1 [1, 5] | Bud development stage, apple branches C1 ([1]; T2 (16 d)) | Bud development stage, apple branches C1 ([1]; T3 (21 d)) | Bud development stage, apple branches C1 ([1]; T4 (27 d)) | Bud development stage, apple branches C1 ([1]; T5 (36 d)) | Bud development stage, apple branches C1 ([1]; T6 (56 d)) | Bud development stage, apple branches C2 [2, 5] | Bud development stage, apple branches C2 ([2]; T2 (16 d)) | Bud development stage, apple branches C2 ([2]; T3 (21 d)) | Bud development stage, apple branches C2 ([2]; T4 (27 d)) | Bud development stage, apple branches C2 ([2]; T5 (36 d)) | Bud development stage, apple branches C2 ([2]; T6 (56 d)) | Bud development stage, cherry branches C3 [3, 5] | Bud development stage, cherry branches C3 ([3]; T2 (16 d)) | Bud development stage, cherry branches C3 ([3]; T3 (21 d)) | Bud development stage, cherry branches C3 ([3]; T4 (27 d)) | Bud development stage, cherry branches C3 ([3]; T5 (36 d)) | Bud development stage, cherry branches C3 ([3]; T6 (56 d)) | Bud development stage, wine sprouts C4 [4, 5] | Bud development stage, wine sprouts C4 ([4]; T2 (16 d)) | also measured
CCCCCC(=O)NC#N.[Na] [Example A-9, Sodium hexanoyl cyanamide] | 0 | 1 | 1 | 2 | 2 | 3 | 0 | 1 | 4 | 5 | 5 | 5 | 0 | 1 | 2 | 3 | 5 | 5 | 0 | 0 | Good to very good dormancy-breaking effect, apple C2 [2, 6]: good to very good dormancy-breaking effect; Dormancy-breaking effect according to the definition, apple C2 [2, 7]: dormancy-breaking effect; Bud development stage, wine sprouts C4 ([4]; T3 (21 d)): 0; Bud development stage, wine sprouts C4 ([4]; T4 (27 d)): 2; Bud development stage, wine sprouts C4 ([4]; T5 (36 d)): 5; Bud development stage, wine sprouts C4 ([4]; T6 (56 d)): 5; Dormancy-breaking effect according to the definition, wine C4 [4, 7]: dormancy-breaking effect
CCCCCCCCCCCC(=O)NC#N.[Na] [Example A-10, Sodium dodecanoyl cyanamide] | 1 | 2 | 4 | 5 | 5 | 5 | 0 | 0 | 0 | 1 | 2 | 4 | 1 | 2 | 4 | 4 | 4 | 5 | 0 | 0 | Good to very good dormancy-breaking effect, apple C1 [1, 6]: good to very good dormancy-breaking effect; Dormancy-breaking effect according to the definition, apple C1 [1, 7]: dormancy-breaking effect; Good to very good dormancy-breaking effect, cherry C3 ([3]; stage 4 reached or exceeded after 21 days vs negative control): good to very good dormancy-breaking effect; Dormancy-breaking effect according to the definition, cherry C3 [3, 6]: dormancy-breaking effect; Bud development stage, wine sprouts C4 ([4]; T3 (21 d)): 0; Bud development stage, wine sprouts C4 ([4]; T4 (27 d)): 1; Bud development stage, wine sprouts C4 ([4]; T5 (36 d)): 2; Bud development stage, wine sprouts C4 ([4]; T6 (56 d)): 4
